Here are results for eleven compounds from patent US10590145B2, “Tetrahydrothiopyranopyrimidine derivatives as anti-HIV agent” (SHANDONG UNIVERSITY, priority 2016, dated 2020).

Like-named read-outs stand apart in the source and are kept apart here.

As a reminder, the melting point is the temperature, or range, at which the solid turns liquid.

The test system of data set [1] is HIV-1 L100I mutant strain. Put plainly: Anti-HIV-1 activity in MT-4 cells (MTT method), L100I. It counts as cell-based. Conditions: Human immunodeficiency virus 1, MT4, read-out: EC50 (nM) L100I. As for the experimental part: (§1) Selected compounds were screened for inhibitory activity against HIV-1 using MTT method as describe previously by Christophe. Pannecouque et al. Nat. Protoc. 3 (2008) 427-434, and Rudi Pauwels et al. J. Virol. Methods 20 (1988) 309-321. Briefly, MT-4 cells infected with HIV-1 can only survive for 5 to 7 days without any treatment, but when HIV-1 inhibitors were added, they can protect MT-4 cell from cytopathic. Serial solution of compounds was added to MT-4 cells after infected with HIV-1, MTT method was used to detect the survival rate after culture for 5 to 7 days. EC50 value was defined as compound concentration required to achieve 50% protection of MT-4 cells against HIV-1-induced cytopathic effect. In vitro anti-HIV-1 assay was supported by Rega Institute for Medical Research.
(§2) • (1) MT-4 cells infected with HIV-1 viral strains (IIIB, L100I, K103N, Y181C, Y188L, E138K, F227L/V106A, Y181C/K103N) were provided by Rega Institute for Medical Research, Katholieke Universiteit Leuven, Belgium. • (2) MTT and formazan: sigma Chemical Co. • (3) Preparation of compounds: Stock solutions (10×final concentration) of test compounds is diluted with double distilled water for 5 folds and 5 concentrations of one compound are prepared. • (4) Reference drugs: Nevirapine (NVP), Efavirenz (EFV), Etravirine (ETV), Rilpivirine (RPV) and Azidothymidine (AZT). • (5) Method (MTT method): Serial five-fold dilutions of test compounds were added to cultured MT-4 cells infected with HIV-1, after 5 to 7 days, MTT was added and cultured for a few hours. Medium was removed and lysate was added followed by formazan, OD value was determined in 690 nm and 540 nm by microplate reader, and EC50 value was calculated. 2. Method
(§3) The MTT method was described briefly as follows: 96-well plastic microtiter trays were filled with 100 μL of complete medium. Subsequently, serial of tested compounds was added (25 μL) to two series of triplicate wells so as to allow simultaneous evaluation of their effects on HIV- and mock infected cells. 50 μL of 1×10^4 cells/mL MT-4 cells were added. After cultured for 5 days at 37° C. in humidified atmosphere in the presence of 5% CO2, MTT was added and cultured for another 2 h, then medium was removed and 100 μL isopropanol solution was added to lyse the cells. Formazan crystals were added and vibrated platform shaker for 10 min to solubilize the formazan crystals. Absorbances at 690 nm and 540 nm were read by using spectrophotometrically. EC50 was defined as the concentration achieving 50% protection from the cytopathic effect of the virus in infected cells.
(§4) Selected compounds prepared as described above were assayed in MT-4 cells infected with wide-type IIIB, L100I, K103N, Y181C, Y188L, E138K or double mutant RES056 (Y181C/K103N) and F227L/V106A HIV-1 strains. Nevirapine, Efavirenz, Etravirine, Rilpivirine and Azidothymidine were selected as reference drugs. The results were listed below as EC50 value (nM)
A general note: Tetrazolium assays rely on reduction of a dye to a coloured formazan, in cell work by metabolically active cells.

Data set [2] relates to HIV-1 E138K mutant strain. The experiment in a line: Anti-HIV-1 activity in MT-4 cells (MTT method), E138K. It counts as cell-based. The note with it: Human immunodeficiency virus 1, MT4, read-out: EC50 (nM) E138K. As for the experimental part: as §1, §2, §3, §4
Data set [3] has as its system HIV-1 Y188L mutant strain. Put plainly: Anti-HIV-1 activity in MT-4 cells (MTT method), Y188L. Conditions: Human immunodeficiency virus 1, MT4, read-out: EC50 (nM) Y188L. The format is cell-based. As for the experimental part:
as §1, §2, §3, §4

Data set [4] has as its system HIV-1 Y181C mutant strain. Put plainly: Anti-HIV-1 activity in MT-4 cells (MTT method), Y181C. It counts as cell-based. The note with it: Human immunodeficiency virus 1, MT4, read-out: EC50 (nM) Y181C. The method, then: as §1, §2, §3, §4
Data set [5] has as its system HIV-1 K103N mutant strain. Put plainly: Anti-HIV-1 activity in MT-4 cells (MTT method), K103N. The note with it: Human immunodeficiency virus 1, MT4, read-out: EC50 (nM) K103N. It counts as cell-based. As for the experimental part:
as §1, §2, §3, §4

In data set [6] the test system is HIV-1 double mutant RES056 (Y181C/K103N). The experiment in a line: Anti-HIV-1 activity in MT-4 cells (MTT method), RES056. The format is cell-based. Conditions: Human immunodeficiency virus 1, MT4, read-out: EC50 (nM) Y181C/K103N. The method, then: as §1, §2, §3, §4
The subject of data set [7] is wide-type HIV-1 (strain IIIB). Put plainly: Anti-HIV-1 activity in MT-4 cells (MTT method), wild-type. The format is cell-based. As for the experimental part: as §1, §2, §3, §4
Data set [8] has as its system HIV-1 F227L/V106A double mutant strain. The experiment in a line: Anti-HIV-1 activity in MT-4 cells (MTT method), F227L/V106A. Conditions: Human immunodeficiency virus 1, MT4, read-out: EC50 (nM) F227L/V106A. It counts as cell-based. The method, then: as §1, §2, §3, §4
The mark [9] stands for this setting: Human immunodeficiency virus 1, IIIB, MT4, read-out: EC50 (nM) wt.

Turning to `Cc1cc(C#N)cc(C)c1Oc1nc(Nc2ccc(C#N)cc2)nc2c1S(=O)(=O)CCC2` [IA-1-4, 4-((2-((4-cyanophenyl)amino)-5,5-dioxido-7,8-dihydro-6H-thiopyrano[3,2-d]pyrimidin-4-yl)oxy)-3,5-dimethylbenzonitrile], the melting point is 263 to 265 °C. In addition, the EC50 in data set [1] was 10 to 100 nM. Besides, the EC50 in data set [2] is 10 to 100 nM. The EC50 in data set [3] is 10 to 100 nM. Moreover, the EC50 in [4] is 10 to 100 nM. Besides, in data set [5], the EC50 is < 10 nM. Besides, in data set [6], the EC50 is 10 to 100 nM. Besides, in data set [7] (setting [9]), the EC50 was < 10 nM. The “Activity against wide-type HIV-1, folds better than NVP” value in data set [7] (wide-type HIV-1, relative to NVP) worked out at 30 folds. In [7] (wide-type HIV-1, relative to RPV), the “Activity against wide-type HIV-1 compared with RPV” value is “comparable”. Further, the EC50 in [8] lay in the range of 10 to 100 nM.
Regarding `Cc1cc(C#N)cc(C)c1Oc1nc(NC2CCN(Cc3ccc(N)cc3)CC2)nc2c1SCCC2` [IIA-1-13, 4-((2-((1-(4-aminobenzyl)piperidin-4-yl)amino)-7,8-dihydro-6H-thiopyrano[3,2-d]pyrimidin-4-yl)oxy)-3,5-dimethylbenzonitrile], the EC50 in data set [1] is 10 to 100 nM; in [2], 10 to 100 nM; in [3], 10 to 100 nM; in data set [4], 10 to 100 nM; in data set [5], < 10 nM; in data set [6], > 100 nM. Also, the EC50 was < 10 nM in data set [7] (setting [9]) and > 100 nM in [8].
For the compound `Cc1cc(C#N)cc(C)c1Oc1nc(NC2CCN(c3cccc(C#N)c3)CC2)nc2c1SCCC2` [IIC-1-1, 4-((2-((1-(3-cyanophenyl)piperidin-4-yl)amino)-7,8-dihydro-6H-thiopyrano[3,2-d]pyrimidin-4-yl)oxy)-3,5-dimethylbenzonitrile], the EC50 in data set [1] was > 100 nM; in data set [2] it was > 100 nM; in [3] it was > 100 nM; in data set [4], > 100 nM; in [5], 10 to 100 nM; in data set [6] it was > 100 nM. The EC50 is 10 to 100 nM in data set [7] (setting [9]) and > 100 nM in [8].
`Cc1cc(C)c(Oc2nc(NC3CCN(Cc4ccc(S(N)(=O)=O)cc4)CC3)nc3c2SCCC3)c(C)c1` [IIA-1-2, 4-((4-((4-(mesityloxy)-7,8-dihydro-6H-thiopyrano[3,2-d]pyrimidin-2-yl)amino)piperidin-1-yl)methyl)benzenesulfonamide]: the EC50 in data set [1] is 10 to 100 nM; in [2], 10 to 100 nM; in data set [3] it was 10 to 100 nM; in data set [4], 10 to 100 nM; in data set [5], < 10 nM; in data set [6], > 100 nM. The results for the EC50 in data set [7] (setting [9]) and in data set [8] were < 10 nM and 10 to 100 nM, respectively.
With `Cc1cc(C#N)cc(C)c1Oc1nc(NC2CCN(Cc3ccccc3C#N)CC2)nc2c1SCCC2` [IIA-1-7, 4-((2-((1-(2-cyanobenzyl)piperidin-4-yl)amino)-7,8-dihydro-6H-thiopyrano[3,2-d]pyrimidin-4-yl)oxy)-3,5-dimethylbenzonitrile], the EC50 in [1] is > 100 nM; in data set [2] it was 10 to 100 nM; in [3] it was > 100 nM; in data set [4] it was 10 to 100 nM; in data set [5], 10 to 100 nM; in [6], > 100 nM. The EC50 is < 10 nM in data set [7] (setting [9]) and > 100 nM in data set [8].
Take `Cc1cc(/C=C/C#N)cc(C)c1Oc1nc(Nc2ccc(C#N)cc2)nc2c1SCCC2` [IA-1-2, (E)-4-((4-(4-(2-cyanovinyl)-2,6-dimethylphenoxy)-7,8-dihydro-6H-thiopyrano[3,2-d]pyrimidin-2-yl)amino)benzonitrile]: the EC50 was < 10 nM in data set [1]; 10 to 100 nM in data set [2]; 10 to 100 nM in data set [3]; 10 to 100 nM in data set [4]; < 10 nM in data set [5]; 10 to 100 nM in [6]. Moreover, the EC50 in [7] (setting [9]) is < 10 nM; in data set [8], 10 to 100 nM.
For `Cc1cc(C#N)cc(C)c1Oc1nc(NC2CCN(Cc3ccc([N+](=O)[O-])cc3)CC2)nc2c1SCCC2` [IIA-1-12, 3,5-dimethyl-4-((2-((1-(4-nitrobenzyl)piperidin-4-yl)amino)-7,8-dihydro-6H-thiopyrano[3,2-d]pyrimidin-4-yl)oxy)benzonitrile], the EC50 in data set [1] was > 100 nM; in [2], 10 to 100 nM; in [3], 10 to 100 nM; in [4] it was > 100 nM; in data set [5], 10 to 100 nM; in data set [6], > 100 nM. Moreover, the EC50 is < 10 nM in data set [7] (setting [9]) and > 100 nM in [8].
Regarding `Cc1cc(C#N)cc(C)c1Oc1nc(NC2CCN(Cc3ccc(C(N)=O)cc3)CC2)nc2c1SCCC2` [IIA-1-8, 4-((4-((4-(4-cyano-2,6-dimethylphenoxy)-7,8-dihydro-6H-thiopyrano[3,2-d]pyrimidin-2-yl)amino)piperidin-1-yl)methyl)benzamide], the EC50 in [1] is 10 to 100 nM; in data set [2], 10 to 100 nM; in data set [3] it was 10 to 100 nM; in [4], 10 to 100 nM; in data set [5], < 10 nM; in data set [6], 10 to 100 nM. In addition, the EC50 is < 10 nM in [7] (setting [9]) and > 100 nM in [8].
For the compound `Cc1cc(C#N)cc(C)c1Oc1nc(NC2CCN(Cc3ccc(S(C)(=O)=O)cc3)CC2)nc2c1SCCC2` [IIA-1-11, 3,5-dimethyl-4-((2-((1-(4-(methylsulfonyl)benzyl)piperidin-4-yl)amino)-7,8-dihydro-6H-thiopyrano[3,2-d]pyrimidin-4-yl)oxy)benzonitrile], the EC50 in data set [1] was 10 to 100 nM; in data set [2] it was 10 to 100 nM; in data set [3], 10 to 100 nM; in data set [4] it was 10 to 100 nM; in [5], < 10 nM; in data set [6] it was 10 to 100 nM. Also, the EC50 was < 10 nM in [7] (setting [9]) and 10 to 100 nM in data set [8].
Take `Cc1cc(C#N)cc(C)c1Oc1nc(NC2CCN(Cc3ccc(NS(C)(=O)=O)cc3)CC2)nc2c1SCCC2` [IIA-1-14, N-(4-((4-((4-(4-cyano-2,6-dimethylphenoxy)-7,8-dihydro-6H-thiopyrano[3,2-d]pyrimidin-2-yl)amino)piperidin-1-yl)methyl)phenyl) methanesulfonamide]: the EC50 was 10 to 100 nM in data set [1]; < 10 nM in data set [2]; 10 to 100 nM in [3]; < 10 nM in data set [4]; < 10 nM in data set [5]; > 100 nM in data set [6]. The EC50 in data set [7] (setting [9]) is < 10 nM; in data set [8], > 100 nM.
Turning to `O=C1Nc2ccc(Cl)cc2[C@@](C#CC2CC2)(C(F)(F)F)O1` [EFV, Efavirenz, reference compound], the EC50 in data set [1] was 10 to 100 nM; in data set [2] it was < 10 nM; in data set [3], 10 to 100 nM; in data set [4], < 10 nM; in data set [5], 10 to 100 nM; in data set [6], > 100 nM. For the same compound, the EC50 in data set [7] (Human immunodeficiency virus 1, MT4, MT-4 cells, 50% protection against HIV-1-induced cytopathicity, wt (IIIB), read-out: EC50 (nM) wt) was < 10 nM; in [8] it was 10 to 100 nM.
